This is an account of results in US10363239B2, “Method for inhibiting growth of cancer cells” (Pain Therapeutics, Inc., priority 2013, dated 2019).

In one assay the test system is mu opiate receptor (MOR). The assay can be described thus: MOR agonist activity using [35S]GTPγS binding assay in striatal membranes. Format: biochemical. The essentials:
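Striatal membranes (200 μg) were preincubated 5 min at 30 °C in HEPES pH 7.5 with 100 mM NaCl, 1 mM MgCl2 and 0.5 nM [35S]GTPγS, then 5 min more with 0.1–10 μM compound. Gαo was immunoprecipitated and bound radioactivity counted by scintillation.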
A general note: GTPγS resists hydrolysis and so accumulates on activated G proteins.

Assay [1] concerns the target FLNA pentapeptide of SEQ ID NO: 1 (Bn-VAKGL) (Homo sapiens, UniProt P21333). The assay can be described thus: FITC-NLX-based FLNA screening assay (inhibition of FITC-naloxone binding to Bn-VAKGL on streptavidin plates). The conditions noted are these: 10 nM FITC-NLX.
Where [2] appears, read: Series B, 0.1 μM compound, relative to DAMGO.
Where [3] appears, read: Series B, 0.1 μM compound, [35S]GTPγS binding to Gαo, striatal membranes.
Setting [4] is: Series B, 1 μM compound + 1 μM β-FNA.
The mark [5] stands for this setting: Series B, 1 μM compound + β-FNA, relative to DAMGO + BFNA.
Setting [6] is: Series B, 1 μM compound, relative to DAMGO.
Setting [7] is: Series B, 1 μM compound, [35S]GTPγS binding to Gαo, striatal membranes.
The mark [8] stands for this setting: read-out: Percent Binding Inhibition, FLNA-binding compound 0.01 μM.
[9] abbreviates: read-out: Percent Binding Inhibition, FLNA-binding compound 0.1 μM.
[10] abbreviates: read-out: Percent Binding Inhibition, FLNA-binding compound 1 μM.
The mark [11] stands for this setting: Series C-1, 0.1 μM compound, relative to DAMGO.
The mark [12] stands for this setting: Series C-1, 0.1 μM compound, [35S]GTPγS binding to Gαo, striatal membranes.
[13] abbreviates: Series C-1, 1 μM compound + 1 μM β-FNA.
The mark [14] stands for this setting: Series C-1, 1 μM compound + β-FNA, relative to DAMGO + BFNA.
[15] abbreviates: Series C-1, 1 μM compound, relative to DAMGO.
[16] abbreviates: Series C-1, 1 μM compound, [35S]GTPγS binding to Gαo, striatal membranes.
The mark [17] stands for this setting: FLNA-binding compound 0.01 μM, read-out: Percent Binding Inhibition.
Where [18] appears, read: FLNA-binding compound 0.1 μM, read-out: Percent Binding Inhibition.
[19] abbreviates: FLNA-binding compound 1 μM, read-out: Percent Binding Inhibition.

Where two headings read alike, the source gives them in different places.

Consider `COc1cccc(OC)c1C(=O)CC1c2c(cc3c(c2OC)OCO3)CC[N+]1(C)C` (stereo not drawn) [Compound B0023], for which the “% DAMGO (0.1 μM)” value with mu opiate receptor (MOR) (setting [2]) was 99.4%. The entries for the “MOR agonist activity, percent [35S]GTPγS binding at the stated compound concentration” value (from here on “MOR agonist activity, percent”) in the assay on mu opiate receptor (MOR) (setting [3]), in the assay on mu opiate receptor (MOR) (setting [4]) and in the assay on mu opiate receptor (MOR) (setting [7]) were 166.1%, 28.4% and 245.3%, respectively. The “% DAMGO + BFNA” value with mu opiate receptor (MOR) (setting [5]) is given as 81.8%. The “% DAMGO (1 μM)” value with mu opiate receptor (MOR) (setting [6]) was determined as 100.1%. In assay [1] (setting [8]), the inhibition at 0.01 µM was determined as 28.5%. Also, in assay [1] (setting [9]), the inhibition at 0.1 µM amounted to 37.8%. Besides, the inhibition at 1 µM in assay [1] (setting [10]) is 46.4%.

On to `COc1cc(CC(=O)CC2c3c(cc4c(c3OC)OCO4)CC[N+]2(C)C)cc(OC)c1OC` (stereo not drawn) [Compound B0008], for which the “% DAMGO (0.1 μM)” value with mu opiate receptor (MOR) (setting [2]) worked out at 84.0%. In addition, the “MOR agonist activity, percent” value in the assay on mu opiate receptor (MOR) (setting [3]) came to 148.3%; in the assay on mu opiate receptor (MOR) (setting [4]) it was 46.0%; with mu opiate receptor (MOR) (setting [7]), 264.1%. In the assay on mu opiate receptor (MOR) (setting [5]), the “% DAMGO + BFNA” value was 70.0%. Further, the “% DAMGO (1 μM)” value with mu opiate receptor (MOR) (setting [6]) is reported as 101.9%. Further, the inhibition at 0.01 µM in assay [1] (setting [8]) worked out at 35.5%. Also, the inhibition at 0.1 µM in assay [1] (setting [9]) amounted to 40.3%. For the same compound, the inhibition at 1 µM in assay [1] (setting [10]) stood at 52.8%.

As for `COc1ccc(NC(=O)N2CCC3(CC2)OCCN3S(=O)(=O)c2ccc(OC)cc2)cc1` [Compound C0041], the “% DAMGO (0.1 μM)” value in the assay on mu opiate receptor (MOR) (setting [11]) worked out at 110.1%. Also, in the assay with mu opiate receptor (MOR) (setting [12]), the “Concentration of FLNA-Binding Compound as Agonist 0.1 μM” value came to 186.1%. The “Concentration of FLNA-Binding Compound as Agonist 1 μM + BFNA” value in the assay on mu opiate receptor (MOR) (setting [13]) is recorded as 95.5%. In addition, in the assay with mu opiate receptor (MOR) (setting [14]), the “% DAMGO + BFNA” value is reported as 575.3%. Moreover, the “% DAMGO (1 μM)” value in the assay with mu opiate receptor (MOR) (setting [15]) came out at 111.7%. The “Concentration of FLNA-Binding Compound as Agonist 1 μM” value with mu opiate receptor (MOR) (setting [16]) is on record as 244.4%. Besides, the inhibition at 0.01 µM in assay [1] (setting [8]) is 38.3%. In addition, the inhibition at 0.1 µM in assay [1] (setting [9]) was found to be 47%. In addition, the inhibition at 1 µM in assay [1] (setting [10]) was found to be 51.2%.

With `COc1ccccc1CC(O)CC1c2c(cc3c(c2OC)OCO3)CCN1C` (stereo not drawn) [Compound B0030], the “% DAMGO (0.1 μM)” value with mu opiate receptor (MOR) (setting [2]) is on record as 62.6%. The “MOR agonist activity, percent” value is listed as 107.2% in the assay with mu opiate receptor (MOR) (setting [3]), 90.1% in the assay with mu opiate receptor (MOR) (setting [4]) and 276.1% in the assay on mu opiate receptor (MOR) (setting [7]). The “% DAMGO + BFNA” value in the assay with mu opiate receptor (MOR) (setting [5]) was determined as 172.9%. Further, the “% DAMGO (1 μM)” value in the assay on mu opiate receptor (MOR) (setting [6]) is reported as 103.4%. For the same compound, in assay [1] (setting [17]), the inhibition at 0.01 µM was 47%. In addition, the inhibition at 0.1 µM in assay [1] (setting [18]) was 50.5%. In assay [1] (setting [19]), the inhibition at 1 µM was found to be 57.6%.

Turning to `CC1CCC(C(C)C)C(OCC(O)CN2CCN(C)CC2)C1` (stereo not drawn) [Compound A0009], in the assay with mu opiate receptor (MOR) (0.1 μM compound), the “MOR agonist activity ([35S]GTPγS binding), FLNA-Binding Compound as Agonist 0.1 μM” value was 70.2%. Further, in the assay with mu opiate receptor (MOR) (0.1 μM compound relative to DAMGO), the “% DAMGO (0.1 μM)” value is 39.8%. For the same compound, the “MOR agonist activity ([35S]GTPγS binding), FLNA-Binding Compound as Agonist 1 μM” value in the assay on mu opiate receptor (MOR) (1 μM compound) turned out to be 126.4%. The “MOR agonist activity ([35S]GTPγS binding), FLNA-Binding Compound as Agonist 1 μM + BFNA” value in the assay on mu opiate receptor (MOR) (1 μM compound + 1 μM β-funaltrexamine) worked out at 93.9%. Besides, in the assay with mu opiate receptor (MOR) (1 μM compound + BFNA relative to DAMGO + BFNA), the “% DAMGO + BFNA” value stood at 142.9%. Further, the “% DAMGO (1 μM)” value in the assay with mu opiate receptor (MOR) (1 μM compound relative to DAMGO) turned out to be 48.7%. In addition, the inhibition at 0.01 µM in assay [1] (setting [17]) was 26.4%. Moreover, in assay [1] (setting [18]), the inhibition at 0.1 µM amounted to 37.8%. Further, the inhibition at 1 µM in assay [1] (setting [19]) is 38.9%.

As to `CC(=O)c1ccc(S(=O)(=O)N2CCOC23CCN(CC2CC2)CC3)cc1` [Compound C0095M], the “% DAMGO (0.1 μM)” value in the assay on mu opiate receptor (MOR) (Series C-2, 0.1 μM compound, relative to DAMGO) is 107.4%. In addition, the “MOR agonist activity, percent” value in the assay with mu opiate receptor (MOR) (Series C-2, 0.1 μM compound, [35S]GTPγS binding to Gαo, striatal membranes) is reported as 189.1%; with mu opiate receptor (MOR) (Series C-2, 1 μM compound + 1 μM β-FNA) it was 107.7%; in the assay on mu opiate receptor (MOR) (Series C-2, 1 μM compound, [35S]GTPγS binding to Gαo, striatal membranes), 224.6%. Further, in the assay with mu opiate receptor (MOR) (Series C-2, 1 μM compound + β-FNA, relative to DAMGO + BFNA), the “% DAMGO + BFNA” value was 489.5%. Moreover, the “% DAMGO (1 μM)” value in the assay with mu opiate receptor (MOR) (Series C-2, 1 μM compound, relative to DAMGO) worked out at 88.8%. Besides, the inhibition at 0.01 µM in assay [1] (setting [17]) was 40.1%. In assay [1] (setting [18]), the inhibition at 0.1 µM was determined as 46.6%. Further, in assay [1] (setting [19]), the inhibition at 1 µM worked out at 50.5%.

Consider `CC(=O)c1ccc(S(=O)(=O)N2CCC3(CC2)OC(CN(C)C)CN3S(=O)(=O)c2ccc(C(C)=O)cc2)cc1` (stereo not drawn) [Compound C0065], for which the “% DAMGO (0.1 μM)” value with mu opiate receptor (MOR) (setting [11]) came to 127.0%. The “Concentration of FLNA-Binding Compound as Agonist 0.1 μM” value in the assay on mu opiate receptor (MOR) (setting [12]) was 198.3%. In the assay with mu opiate receptor (MOR) (setting [13]), the “Concentration of FLNA-Binding Compound as Agonist 1 μM + BFNA” value is given as 47.7%. Moreover, the “% DAMGO + BFNA” value in the assay with mu opiate receptor (MOR) (setting [14]) is 119.5%. For the same compound, the “% DAMGO (1 μM)” value in the assay on mu opiate receptor (MOR) (setting [15]) is recorded as 121.3%. Besides, in the assay on mu opiate receptor (MOR) (setting [16]), the “Concentration of FLNA-Binding Compound as Agonist 1 μM” value is 279.5%. Also, the inhibition at 0.01 µM in assay [1] (setting [8]) was 37.1%. Moreover, the inhibition at 0.1 µM in assay [1] (setting [9]) came out at 44%. Moreover, the inhibition at 1 µM in assay [1] (setting [10]) was determined as 47%.

In general, inhibition refers to the share of the control response that was lost under treatment.
